Activity calls are given as the source filed them. Rule as the data show it, for most assays here: actives have a measured EC50 and inactives only a lower limit.

This is an account of results in ChEMBL document CHEMBL1201862, “PubChem BioAssay data set” (2004).

The subject of experiment [1] is Streptococcus sp. 'group A'. In words: growth inhibition of control SK(-) GAS strain, dose response, counter-screen for streptokinase expression inhibitor project, luminescence, kanamycin, BacTiterGlo, confirmation (AID 1900). The class given is functional, organism-based. Background: Counterscreens check selectivity or assay interference.
For a further experiment, the target named is T1, Streptokinase A (Streptococcus pyogenes serotype M1, UniProt P10520).
T1 sequence (P10520 whole entry): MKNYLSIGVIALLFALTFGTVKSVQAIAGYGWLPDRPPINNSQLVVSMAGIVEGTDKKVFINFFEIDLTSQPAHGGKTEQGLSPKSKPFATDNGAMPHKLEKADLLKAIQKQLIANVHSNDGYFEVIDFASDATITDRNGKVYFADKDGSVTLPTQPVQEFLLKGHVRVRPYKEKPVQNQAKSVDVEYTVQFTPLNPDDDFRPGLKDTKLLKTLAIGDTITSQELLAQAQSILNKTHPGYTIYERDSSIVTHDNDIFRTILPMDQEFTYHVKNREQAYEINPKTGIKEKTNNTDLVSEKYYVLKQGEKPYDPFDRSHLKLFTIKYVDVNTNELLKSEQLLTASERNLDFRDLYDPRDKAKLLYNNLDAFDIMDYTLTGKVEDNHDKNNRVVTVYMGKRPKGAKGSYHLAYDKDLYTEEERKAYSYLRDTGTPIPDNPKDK
In words: S. pyogenes streptokinase expression inhibitors, potency, dose response, plasminogen activation absorbance, OD405 (AID 1914).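 Also: secreted streptokinase activity via plasminogen activation per viability signal from cell pellet.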 The class given is functional, Streptococcus pyogenes M1 GAS.

The test system of another experiment is Streptococcus. In words: Group A Streptococcus viability loss, dose response, counter-screen for streptokinase expression inhibitor project, luminescence, BacTiterGlo (AID 1915).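 Also: potency for reduction of bacterial viability or growth.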 The class given is functional, organism-based.
Experiment [2] concerns the target T2, Sentrin-specific protease 7 (Homo sapiens, UniProt Q9BQF6).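 Also: Luminescence-based dose-response confirmation of ultra-high-throughput screening hits, measuring inhibition of SENP7.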
T2 sequence (Q9BQF6 whole entry): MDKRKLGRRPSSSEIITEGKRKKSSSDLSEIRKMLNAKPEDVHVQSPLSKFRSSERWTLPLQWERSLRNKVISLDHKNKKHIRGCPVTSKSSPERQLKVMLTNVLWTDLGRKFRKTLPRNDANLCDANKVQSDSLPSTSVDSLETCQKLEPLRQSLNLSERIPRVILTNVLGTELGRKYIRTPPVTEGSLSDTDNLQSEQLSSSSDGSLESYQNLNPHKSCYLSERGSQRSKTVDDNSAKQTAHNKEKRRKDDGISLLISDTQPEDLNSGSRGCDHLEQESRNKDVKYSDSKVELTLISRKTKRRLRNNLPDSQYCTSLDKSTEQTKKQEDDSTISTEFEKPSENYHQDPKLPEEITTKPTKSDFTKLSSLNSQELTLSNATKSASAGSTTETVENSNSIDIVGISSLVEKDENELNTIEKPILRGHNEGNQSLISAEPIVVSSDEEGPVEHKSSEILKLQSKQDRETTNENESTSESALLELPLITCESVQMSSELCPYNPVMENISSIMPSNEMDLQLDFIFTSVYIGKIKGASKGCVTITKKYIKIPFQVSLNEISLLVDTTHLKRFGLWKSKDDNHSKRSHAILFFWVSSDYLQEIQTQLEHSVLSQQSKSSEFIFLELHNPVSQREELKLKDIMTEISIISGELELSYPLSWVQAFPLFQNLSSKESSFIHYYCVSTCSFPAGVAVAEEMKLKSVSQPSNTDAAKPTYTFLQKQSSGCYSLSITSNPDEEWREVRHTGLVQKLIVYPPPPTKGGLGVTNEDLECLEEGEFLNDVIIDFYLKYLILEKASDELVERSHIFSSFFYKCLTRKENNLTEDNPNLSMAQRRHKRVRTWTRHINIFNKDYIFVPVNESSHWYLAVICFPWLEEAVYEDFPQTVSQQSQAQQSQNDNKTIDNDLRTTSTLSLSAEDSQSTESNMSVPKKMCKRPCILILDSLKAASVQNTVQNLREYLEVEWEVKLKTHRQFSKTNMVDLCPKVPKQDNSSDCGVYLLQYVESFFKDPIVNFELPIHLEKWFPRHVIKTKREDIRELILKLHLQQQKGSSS
The class given is functional.

Experiment [3] deals with T3, Apoptotic protease-activating factor 1 (Homo sapiens, UniProt O14727).
T3 sequence (O14727 whole entry): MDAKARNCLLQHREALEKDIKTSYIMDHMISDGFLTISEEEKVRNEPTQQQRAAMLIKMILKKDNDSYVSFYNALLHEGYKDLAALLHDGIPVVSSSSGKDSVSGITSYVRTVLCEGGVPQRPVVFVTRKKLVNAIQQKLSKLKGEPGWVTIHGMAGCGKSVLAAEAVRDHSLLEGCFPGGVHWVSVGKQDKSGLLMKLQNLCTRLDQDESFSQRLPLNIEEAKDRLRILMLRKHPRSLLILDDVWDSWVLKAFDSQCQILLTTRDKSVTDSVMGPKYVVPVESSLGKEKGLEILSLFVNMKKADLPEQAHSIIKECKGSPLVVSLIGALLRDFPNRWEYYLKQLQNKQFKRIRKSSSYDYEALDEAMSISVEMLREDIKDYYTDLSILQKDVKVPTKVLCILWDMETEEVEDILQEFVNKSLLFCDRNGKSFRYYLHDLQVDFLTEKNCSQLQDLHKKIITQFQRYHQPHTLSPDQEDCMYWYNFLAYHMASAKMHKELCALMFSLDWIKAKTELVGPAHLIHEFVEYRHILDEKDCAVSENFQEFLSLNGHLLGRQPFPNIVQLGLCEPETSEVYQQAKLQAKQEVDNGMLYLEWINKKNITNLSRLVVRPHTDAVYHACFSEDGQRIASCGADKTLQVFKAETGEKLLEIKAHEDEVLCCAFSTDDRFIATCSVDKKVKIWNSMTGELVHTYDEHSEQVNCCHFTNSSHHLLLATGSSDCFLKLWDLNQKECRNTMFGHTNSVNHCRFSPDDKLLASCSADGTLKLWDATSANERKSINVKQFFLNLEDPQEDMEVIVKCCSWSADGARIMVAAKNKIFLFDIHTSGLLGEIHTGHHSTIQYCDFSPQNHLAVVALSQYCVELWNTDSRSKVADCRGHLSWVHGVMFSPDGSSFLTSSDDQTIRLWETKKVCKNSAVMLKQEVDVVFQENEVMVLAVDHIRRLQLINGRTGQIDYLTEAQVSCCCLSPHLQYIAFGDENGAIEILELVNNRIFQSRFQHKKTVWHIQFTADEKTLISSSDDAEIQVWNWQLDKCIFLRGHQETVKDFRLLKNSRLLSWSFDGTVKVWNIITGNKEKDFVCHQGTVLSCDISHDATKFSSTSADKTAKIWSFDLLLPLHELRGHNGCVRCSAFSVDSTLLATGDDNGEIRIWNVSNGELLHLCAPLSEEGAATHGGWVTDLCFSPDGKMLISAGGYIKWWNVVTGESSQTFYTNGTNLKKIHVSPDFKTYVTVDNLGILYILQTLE
The class given is functional.

A word on the EC50: it is the midpoint of the concentration-response curve. On to `O=C(Nc1ccccc1)c1nnsc1[S+]([O-])c1ccc(Cl)cc1` (stereo not given), for which the concentration for a half-maximal effect (EC50) in experiment [1] was 2.11 µM (active); on Streptokinase A, 1.06 µM (active); in the experiment on Streptococcus, 3.79 µM (active).

One may read the IC50 as the concentration at which inhibition is half-maximal. Take `CC1OC(Nc2cccc3ccccc23)C(O)C(O)C1O` (stereo not given): the IC50 in experiment [2] was 7.53 µM (active); in experiment [3], 14.8 µM (active).

As for `O=C1C=C(Nc2ccccc2)c2ccccc2C1=O`, the results for the EC50 (in experiment [1]; on Streptokinase A; with Streptococcus) were 1.77 µM (active), > 150 µM (not active) and 8.86 µM (active), respectively. Also, the IC50 in experiment [2] is 12.2 µM (active); in experiment [3] it was 2.23 µM (active).
